{"source": "paper PMC6385989", "about": "“Metformin Affects Heme Function as a Possible Mechanism of Action” (G3: Genes|Genomes|Genetics, 2018)", "test_in_all_cases": "absorbance of reduced form, protection from air oxidation, one-site fit", "format_in_all_cases": "binding", "key": {"myoglobin": {"biological_target": "T1, myoglobin (Homo sapiens, UniProt P02144)", "T1 construct": "gene MB; commercial protein with heme", "T1 sequence (P02144 2-154)": "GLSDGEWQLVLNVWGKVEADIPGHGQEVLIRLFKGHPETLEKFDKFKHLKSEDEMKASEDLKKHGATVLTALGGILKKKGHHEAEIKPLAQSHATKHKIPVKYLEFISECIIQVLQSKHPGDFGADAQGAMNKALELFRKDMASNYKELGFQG"}, "hemoglobin": {"biological_target": "T2, hemoglobin (Homo sapiens, UniProt P68871+P69905)", "T2 construct": "gene HBA1; commercial lyophilized hemoglobin with heme", "T2 sequence (P69905 2-142)": "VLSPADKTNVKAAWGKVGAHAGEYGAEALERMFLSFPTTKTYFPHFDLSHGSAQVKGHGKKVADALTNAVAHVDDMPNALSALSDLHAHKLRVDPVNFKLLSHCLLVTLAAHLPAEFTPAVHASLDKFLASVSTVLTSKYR", "T2 sequence (P68871 2-147)": "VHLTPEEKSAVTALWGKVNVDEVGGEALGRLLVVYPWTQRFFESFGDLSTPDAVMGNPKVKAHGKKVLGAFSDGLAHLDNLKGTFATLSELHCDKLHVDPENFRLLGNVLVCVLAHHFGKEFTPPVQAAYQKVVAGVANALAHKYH"}, "cytochrome c": {"biological_target": "T3, cytochrome c", "T3 construct": "gene CYCS; commercial reduced cytochrome c with heme", "settings": "PBS, 2 mM NH4OAc, ambient, 5 days; apparent, for retaining ferrous heme"}}}
{"molecule": "CN(C)C(=N)NC(=N)N", "note": "[metformin]", "values": [{"measurement": "Kd", "setting": "myoglobin", "result": 570, "unit": "µM"}, {"measurement": "Kd", "setting": "hemoglobin", "result": 860, "unit": "µM"}, {"measurement": "Kd", "setting": "cytochrome c", "result": 1150, "unit": "µM"}]}
